Test results: patent US20220411439A1, “POLYMORPHS OF A MACROCYCLIC KINASE INHIBITOR” (TURNING POINT THERAPEUTICS, INC., priority 2019, published 2022)
Read-outs that look alike come from different tables or passages of the source.

Target: T1, Ba/F3 KIF5B-RET (Homo sapiens, UniProt P07949, cells depend on it, form not given)
T1 construct: IC50 (nM); other: Experiment 1; other: Experiment 2; fused on or other part: P33176 (Kinesin-1 heavy chain)
Experiment: Compound I anti-cell proliferation comparison (FIG. 5A, 5B)
Type: cell-based
Settings: for GI50: read-out: IC50 (the source's name)
From the text: The KIF5B-RET gene was synthesized at GenScript and cloned into pCDH-CMV-MCS-EF1-Puro plasmid (System Biosciences, Inc). KIF5B-RET point mutation V804M and G810C were generated at GenScript by PCR and confirmed by sequencing. Ba/F3-KIF5B-RET wild type and mutant were generated by transducing Ba/F3 cells with lentivirus containing KIF5B-RET wide type or mutant. Stable cell lines were selected by puromycin treatment, followed by IL-3 withdrawal. Briefly, 5×10^6 Ba/F3 cells were transduced with lentivirus supernatant in the presence of 8 μg/mL protamine sulfate. The transduced cells were subsequently selected with 1 μg/mL puromycin in the presence of IL3-containing medium RPMI1640, plus 10% FBS. After 10-12 days of selection, the surviving cells were further selected for […] independent growth.
Two thousand cells per well were seeded in 384 well white plate for 24 hrs, and then treated with compounds for 72 hours (37° C., 5% CO2). Cell proliferation was measured using CellTiter-Glo luciferase-based ATP detection assay (Promega) following the manufactures's protocol. IC50 determinations were performed using GraphPad Prism software (GraphPad, Inc., San Diego, Calif.).

T1 sequence (P07949 whole entry G810C, form open, the tested form may be a part): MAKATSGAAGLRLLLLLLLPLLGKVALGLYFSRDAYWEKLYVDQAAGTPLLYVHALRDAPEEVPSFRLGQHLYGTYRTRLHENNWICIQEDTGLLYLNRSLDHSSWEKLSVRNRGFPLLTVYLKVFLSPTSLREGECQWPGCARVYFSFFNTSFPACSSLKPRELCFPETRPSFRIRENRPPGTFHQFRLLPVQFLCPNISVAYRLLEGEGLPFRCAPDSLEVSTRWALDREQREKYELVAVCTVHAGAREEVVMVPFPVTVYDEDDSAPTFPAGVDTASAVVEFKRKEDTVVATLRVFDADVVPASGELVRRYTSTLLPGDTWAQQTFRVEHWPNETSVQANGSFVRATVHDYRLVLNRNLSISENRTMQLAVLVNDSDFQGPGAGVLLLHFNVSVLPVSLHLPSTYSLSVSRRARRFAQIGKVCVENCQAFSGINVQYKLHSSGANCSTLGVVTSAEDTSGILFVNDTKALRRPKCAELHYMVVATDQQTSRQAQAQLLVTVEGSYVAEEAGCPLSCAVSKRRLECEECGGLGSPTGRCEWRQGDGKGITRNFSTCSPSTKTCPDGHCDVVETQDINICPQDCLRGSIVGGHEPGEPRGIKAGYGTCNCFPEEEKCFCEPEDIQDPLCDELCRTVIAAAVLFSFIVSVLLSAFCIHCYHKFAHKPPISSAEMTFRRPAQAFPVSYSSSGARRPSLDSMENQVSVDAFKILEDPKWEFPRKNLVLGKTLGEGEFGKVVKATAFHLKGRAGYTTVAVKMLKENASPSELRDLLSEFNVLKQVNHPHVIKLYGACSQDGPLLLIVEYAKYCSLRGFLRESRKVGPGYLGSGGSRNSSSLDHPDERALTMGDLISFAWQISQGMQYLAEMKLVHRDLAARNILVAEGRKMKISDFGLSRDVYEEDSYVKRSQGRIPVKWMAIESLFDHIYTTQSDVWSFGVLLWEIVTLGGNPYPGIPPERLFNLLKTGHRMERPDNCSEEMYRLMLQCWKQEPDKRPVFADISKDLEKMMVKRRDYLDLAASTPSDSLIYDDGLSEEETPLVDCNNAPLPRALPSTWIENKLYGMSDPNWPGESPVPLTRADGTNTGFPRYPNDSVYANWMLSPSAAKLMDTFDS

Structure (SMILES): CO[C@]1(C(=O)N[C@@H](C)c2ccc(-n3cc(F)cn3)nc2)CC[C@H](c2nc(C)cc(Nc3cc(C)[nH]n3)n2)CC1 [BLU-667]
- IC75 (Experiment 1): 115.4 nM
- IC90 (Experiment 1): 720 nM
- GI50 (Experiment 1): 18.5 nM
- IC75 (Experiment 2): 214.3 nM
- IC90 (Experiment 2): 1030 nM
- GI50 (Experiment 2): 44.6 nM
